According to US8299093B2, “Small molecule inhibitors of retroviral assembly and maturation” (New York Blood Center, Inc., priority 2008, dated 2012):
Like-named read-outs stand apart in the source and are kept apart here.

Experiments:
HIV-1 = assay: Inhibition of HIV-1 infectivity (p24 ELISA) in MT-2 cells, laboratory-adapted HIV-1 strains; assay type: cell-based; settings: Human immunodeficiency virus 1, MT2, 96 h, MT-2 cells, p24 ELISA day 4
Experimental: AZT was used as a positive control in the infectivity assays. In brief, 1×10^4 MT-2 cells (lymphocytes) were infected with HIV-1 at 100 TCID50 (50% tissue culture infective dose, 0.01 MOI [multiplicity of infection]) in 200 μL RPMI 1640 medium containing 10% FBS in the presence or absence of small molecules at graded concentrations overnight. The culture supernatants were then removed and fresh media containing freshly prepared test compounds were added. On the fourth day post-infection, 100 μL of culture supernatants were collected from each well, mixed with equal volume of 5% TRITON X-100® and tested for p24 antigen by ELISA®.

[1] = XTT cytotoxicity assay in MT-2 cells; assay type: cell-based; settings: human, cell type not given
Experimental: Briefly, for MT-2 cells, 100 μL of small molecule at graded concentrations was added to an equal volume of cells (5×10^4 cells/ml) in 96-well plates followed by incubation at 37° C. for 4 days, which ran parallel to the neutralization assay in MT-2 (except medium was added instead of virus). In the case of PBMC, 2.5×10^5 cells/mL were used and the cytotoxicity was measured after 7 days. After addition of XTT (PolySciences, Inc.), the soluble intracellular formazan was quantitated calorimetrically at 450 nm 4 hours later with a reference at 620 nm. The CC50 values were calculated.

[2] = Table 2, formula II, read-out: CC50
[3] = read-out: IC50 (concentration that provides 50% inhibition of HIV-1 p24), Table 1, formula I
[4] = Table 1, formula I, read-out: CC50 (concentration that causes 50% cytotoxicity)

Cc1cc(=O)n2c3ccccc3n(CC(O)CN3CCOCC3)c2c1C#N (stereo not shown) [NYAD-S13]
IC50 (HIV-1; Table 2, formula II): > 10 µM
CC50 [1, 2]: > 10 µM

Cc1cc(C)c2[nH]c(=O)c(CN(Cc3ccco3)C(=O)c3ccncc3)cc2c1 [NYAD-S107]
IC50 (HIV-1; [3]): > 10 µM
CC50 [1, 4]: > 10 µM

Cc1cccc2cc(CN(Cc3ccco3)C(=O)c3ccc(C(C)(C)C)cc3)c(=O)[nH]c12 [NYAD-S23]
IC50 (HIV-1; [3]): > 10 µM
CC50 [1, 4]: > 10 µM

Cc1ccc2[nH]c(=O)c(CN(Cc3ccco3)C(=O)c3ccccc3Br)cc2c1 [NYAD-S90]
IC50 (HIV-1; [3]): > 10 µM
CC50 [1, 4]: > 10 µM

Cc1ccc2[nH]c(=O)c(CN(Cc3ccco3)C(=O)c3ccccc3)cc2c1 [NYAD-S45]
IC50 (HIV-1; [3]): < 10 µM
CC50 [1, 4]: > 10 µM

Cc1ccc2[nH]c(=O)c(CN(Cc3ccco3)C(=O)c3cccs3)cc2c1 [NYAD-S44]
IC50 (HIV-1; [3]): > 10 µM
CC50 [1, 4]: > 10 µM

Cc1ccc2cc(CN(Cc3ccco3)C(=O)c3ccccc3F)c(=O)[nH]c2c1 [NYAD-S34]
IC50 (HIV-1; [3]): > 10 µM
CC50 [1, 4]: > 10 µM

COc1ccc2[nH]c(=O)c(CN(Cc3ccco3)C(=O)c3ccccc3C)cc2c1 [NYAD-S61]
IC50 (HIV-1; [3]): > 10 µM
CC50 [1, 4]: > 10 µM

Cc1ccc(NCC(O)Cn2c3ccccc3n3c(=O)cc(C)c(C#N)c23)cc1 (stereo not shown) [NYAD-S52]
IC50 (HIV-1; Table 2, formula II): > 10 µM
CC50 [1, 2]: > 10 µM

Cc1ccc2cc(CN(Cc3ccco3)C(=O)c3ccc(F)cc3)c(=O)[nH]c2c1 [NYAD-S28]
IC50 (HIV-1; [3]): > 10 µM
CC50 [1, 4]: > 10 µM

Cc1ccc(CN(Cc2cc3cc(C)ccc3[nH]c2=O)C(=O)c2ccco2)cc1 [NYAD-S121]
IC50 (HIV-1; [3]): < 10 µM
CC50 [1, 4]: > 10 µM

Cc1ccc2[nH]c(=O)c(CN(Cc3ccco3)C(=O)c3ccc(Cl)c(Cl)c3)cc2c1 [NYAD-S6-6]
IC50 (HIV-1; [3]): < 10 µM
CC50 [1, 4]: > 10 µM

Cc1ccc2[nH]c(=O)c(CN(Cc3ccc(Cl)cc3)C(=O)c3ccccc3)cc2c1 [NYAD-S98]
IC50 (HIV-1; [3]): > 10 µM
CC50 [1, 4]: > 10 µM

CCC(=O)N(Cc1ccco1)Cc1cc2cc(C)ccc2[nH]c1=O [NYAD-S20]
IC50 (HIV-1; [3]): > 10 µM
CC50 [1, 4]: > 10 µM

CCOc1ccc2[nH]c(=O)c(CN(Cc3ccco3)C(=O)c3ccc(Br)cc3)cc2c1 [NYAD-S94]
IC50 (HIV-1; [3]): > 10 µM
CC50 [1, 4]: > 10 µM

COc1ccccc1C(=O)N(Cc1ccco1)Cc1cc2ccc(C)cc2[nH]c1=O [NYAD-S29]
IC50 (HIV-1; [3]): > 10 µM
CC50 [1, 4]: > 10 µM

Cc1ccc2[nH]c(=O)c(CN(Cc3ccccc3)C(=O)c3ccco3)cc2c1 [NYAD-S37]
IC50 (HIV-1; [3]): < 10 µM
CC50 [1, 4]: > 10 µM

Cc1cccc(C(=O)N(Cc2ccco2)Cc2cc3cccc(C)c3[nH]c2=O)c1 [NYAD-S26]
IC50 (HIV-1; [3]): > 10 µM
CC50 [1, 4]: > 10 µM

COc1ccc(C(=O)N(Cc2ccco2)Cc2cc3cc(C)ccc3[nH]c2=O)cc1OC [NYAD-S41]
IC50 (HIV-1; [3]): > 10 µM
CC50 [1, 4]: > 10 µM

COc1ccc(CCNCC(O)Cn2c3ccccc3n3c(=O)cc(C)c(C#N)c23)cc1OC (stereo not shown) [NYAD-S19]
IC50 (HIV-1; Table 2, formula II): > 10 µM
CC50 [1, 2]: > 10 µM

CCOc1ccc2[nH]c(=O)c(CN(Cc3ccco3)C(=O)c3ccccc3Cl)cc2c1 [NYAD-S89]
IC50 (HIV-1; [3]): > 10 µM
CC50 [1, 4]: > 10 µM

Cc1cc(=O)n2c3ccccc3n(CC(O)CNc3ccc(C(C)C)cc3)c2c1C#N (stereo not shown) [NYAD-S59]
IC50 (HIV-1; Table 2, formula II): < 10 µM
CC50 [1, 2]: < 10 µM

Cc1cccc(C(=O)N(Cc2ccco2)Cc2cc3ccc(C)cc3[nH]c2=O)c1 [NYAD-S40]
IC50 (HIV-1; [3]): > 10 µM
CC50 [1, 4]: > 10 µM

CCOc1ccc(C(=O)N(Cc2ccco2)Cc2cc3cc(OC)c(OC)cc3[nH]c2=O)cc1 [NYAD-S84]
IC50 (HIV-1; [3]): > 10 µM
CC50 [1, 4]: > 10 µM

Cc1cc(=O)n2c3ccccc3n(CC(O)CN3CCN(CCOc4ccc(Cl)cc4)CC3)c2c1C#N (stereo not shown) [NYAD-S16]
IC50 (HIV-1; Table 2, formula II): < 10 µM
CC50 [1, 2]: > 10 µM

Cc1cc(=O)n2c3ccccc3n(CC(O)CNc3ccc(Cl)cc3)c2c1C#N (stereo not shown) [NYAD-S63]
IC50 (HIV-1; Table 2, formula II): > 10 µM
CC50 [1, 2]: > 10 µM

Cc1ccc(C(=O)N(Cc2ccco2)Cc2cc3ccc(C)cc3[nH]c2=O)cc1 [NYAD-S92]
IC50 (HIV-1; [3]): > 10 µM
CC50 [1, 4]: > 10 µM

CCOc1ccc2[nH]c(=O)c(CN(Cc3ccc(F)cc3)C(=O)c3ccco3)cc2c1 [NYAD-S95]
IC50 (HIV-1; [3]): > 10 µM
CC50 [1, 4]: > 10 µM

Cc1cccc2cc(CN(Cc3ccco3)C(=O)c3ccccc3)c(=O)[nH]c12 [NYAD-S21]
IC50 (HIV-1; [3]): < 10 µM
CC50 [1, 4]: > 10 µM

Cc1cc(=O)n2c3ccccc3n(CC(O)CN3CCCCC3)c2c1C#N (stereo not shown) [NYAD-S12]
IC50 (HIV-1; Table 2, formula II): > 10 µM
CC50 [1, 2]: > 10 µM

Cc1cc(C)cc(NCC(O)Cn2c3ccccc3n3c(=O)cc(C)c(C#N)c23)c1 (stereo not shown) [NYAD-S58]
IC50 (HIV-1; Table 2, formula II): > 10 µM
CC50 [1, 2]: > 10 µM

Cc1ccc2[nH]c(=O)c(CN(Cc3ccco3)C(=O)c3ccccc3F)cc2c1 [NYAD-S49]
IC50 (HIV-1; [3]): > 10 µM
CC50 [1, 4]: > 10 µM

Cc1ccc2cc(CN(Cc3ccco3)C(=O)c3cccc(F)c3)c(=O)[nH]c2c1 [NYAD-S81]
IC50 (HIV-1; [3]): < 10 µM
CC50 [1, 4]: > 10 µM

CCOc1ccc(C(=O)N(Cc2ccco2)Cc2cc3ccc(C)cc3[nH]c2=O)cc1 [NYAD-S24]
IC50 (HIV-1; [3]): > 10 µM
CC50 [1, 4]: > 10 µM

Cc1cccc2cc(CN(Cc3ccco3)C(=O)c3cccnc3)c(=O)[nH]c12 [NYAD-S30]
IC50 (HIV-1; [3]): > 10 µM
CC50 [1, 4]: > 10 µM

Cc1ccc2[nH]c(=O)c(CN(Cc3ccco3)C(=O)c3ccc(C(C)(C)C)cc3)cc2c1 [NYAD-S91]
IC50 (HIV-1; [3]): > 10 µM
CC50 [1, 4]: > 10 µM

COc1ccc2[nH]c(=O)c(CN(Cc3ccco3)C(=O)c3ccc(C)cc3)cc2c1 [NYAD-S100]
IC50 (HIV-1; [3]): < 10 µM
CC50 [1, 4]: > 10 µM

Cc1cccc2cc(CN(Cc3ccccc3)C(=O)c3cccc(Cl)c3)c(=O)[nH]c12 [NYAD-S35]
IC50 (HIV-1; [3]): > 10 µM
CC50 [1, 4]: > 10 µM

Cc1cc(=O)n2c3ccccc3n(CC(O)CCl)c2c1C#N (stereo not shown) [NYAD-S62]
IC50 (HIV-1; Table 2, formula II): > 10 µM
CC50 [1, 2]: > 10 µM

Cc1ccc(NCC(O)Cn2c3ccccc3n3c(=O)cc(C)c(C#N)c23)cc1C (stereo not shown) [NYAD-S55]
IC50 (HIV-1; Table 2, formula II): > 10 µM
CC50 [1, 2]: > 10 µM

Cc1cccc2cc(CN(Cc3ccco3)C(=O)c3cccc(F)c3)c(=O)[nH]c12 [NYAD-S118]
IC50 (HIV-1; [3]): < 10 µM
CC50 [1, 4]: > 10 µM

CCc1ccc2[nH]c(=O)c(CN(Cc3cccnc3)C(=S)NCC3CCCO3)cc2c1 (stereo not shown) [NYAD-S3]
IC50 (HIV-1; [3]): > 10 µM
CC50 [1, 4]: > 10 µM

CCc1ccc2[nH]c(=O)c(CN(Cc3ccco3)C(=O)c3ccc(C(C)(C)C)cc3)cc2c1 [NYAD-S110]
IC50 (HIV-1; [3]): > 10 µM
CC50 [1, 4]: > 10 µM

Cc1ccccc1N1CCN(CC(O)Cn2c3ccccc3n3c(=O)cc(C)c(C#N)c23)CC1 (stereo not shown) [NYAD-S14]
IC50 (HIV-1; Table 2, formula II): > 10 µM
CC50 [1, 2]: > 10 µM

Cc1ccc(C(=O)N(Cc2ccco2)Cc2cc3cccc(C)c3[nH]c2=O)cc1 [NYAD-S122]
IC50 (HIV-1; [3]): < 10 µM
CC50 [1, 4]: < 10 µM

CCOc1ccc2[nH]c(=O)c(CN(Cc3ccco3)C(=O)c3ccc(C(C)(C)C)cc3)cc2c1 [NYAD-S108]
IC50 (HIV-1; [3]): > 10 µM
CC50 [1, 4]: > 10 µM

Cc1ccc2[nH]c(=O)c(CN(Cc3ccco3)C(=O)c3ccc(F)c(C)c3)cc2c1 [NYAD-S6-19]
IC50 (HIV-1; [3]): < 10 µM
CC50 [1, 4]: > 10 µM

Cc1cccc2cc(CN(Cc3ccccc3)C(=O)c3ccco3)c(=O)[nH]c12 [NYAD-S22]
IC50 (HIV-1; [3]): > 10 µM
CC50 [1, 4]: > 10 µM

Cc1ccc2[nH]c(=O)c(CN(Cc3ccco3)S(=O)(=O)c3ccc(Cl)cc3)cc2c1 [NYAD-S6-4]
IC50 (HIV-1; [3]): < 10 µM
CC50 [1, 4]: > 10 µM

Cc1ccc2cc(CN(CC3CCCO3)C(=O)c3ccco3)c(=O)[nH]c2c1C (stereo not shown) [NYAD-S47]
IC50 (HIV-1; [3]): > 10 µM
CC50 [1, 4]: > 10 µM

Cc1cc2cc(CN(Cc3ccco3)C(=O)C3CCCCC3)c(=O)[nH]c2cc1C [NYAD-S43]
IC50 (HIV-1; [3]): > 10 µM
CC50 [1, 4]: > 10 µM

CCc1ccc2[nH]c(=O)c(CN(Cc3ccco3)C(=O)c3ccccc3)cc2c1 [NYAD-S99]
IC50 (HIV-1; [3]): > 10 µM
CC50 [1, 4]: > 10 µM

Cc1cc(=O)n2c3ccccc3n(CC(O)CN3CCC(C)CC3)c2c1C#N (stereo not shown) [NYAD-S64]
IC50 (HIV-1; Table 2, formula II): > 10 µM
CC50 [1, 2]: > 10 µM
